We go through 24 molecules from ChEMBL document CHEMBL4715834, “Design, synthesis and bio-evaluation of novel 2-aryl-4-(3,4,5-trimethoxy-benzoyl)-5-substituted-1,2,3-triazoles as the tubulin polymerization inhibitors” (Eur J Med Chem, 2020).

One may read the IC50 as the concentration at which inhibition is half-maximal. As usually defined, the solubility is the concentration that dissolves in the medium under given conditions.

The structures appear in SMILES notation. ≈ marks a conversion by molar mass, not a printed value. Calls of active or inactive are those of the source. The rule behind the calls is not given here. A value given as a limit tells only on which side of the number the result lay.

The test system of data set [1] is HeLa. The data set can be described thus: Antiproliferative activity against human HeLa cells assessed as inhibition of cell growth measured after 72 hrs by MTT assay. The format is functional, cell-based. In general terms: Tetrazolium dyes change colour on reduction, which living cells bring about.
The subject of data set [2] is A549. The data set can be described thus: Antiproliferative activity against human A549 cells assessed as inhibition of cell growth measured after 72 hrs by MTT assay. The format is functional, cell-based. The following applies: A549, 72 h.
Data set [3] has as its system SGC-7901. The data set can be described thus: Antiproliferative activity against human SGC-7901 cells assessed as inhibition of cell growth measured after 72 hrs by MTT assay. The format is functional, cell-based. The note with it: SGC-7901, 72 h.
A short description of data set [4]: Solubility of compound in water at pH 7.4 by UV-HPLC method. The format is physicochemical.
The species named for data set [5] is Sus scrofa. The data set can be described thus: (§1) Inhibition of porcine tubulin polymerization measured for 60 mins by fluorescence assay.
Data set [6] can be described thus: as §1. The arrangement: species or system Sus scrofa.
In data set [7] the test system is SGC-7901. The data set can be described thus: Induction of microtubule disruption in human SGC-7901 cells assessed as change in shape of nucleus at 0.084 uM measured after 24 hrs by DAPI staining based immunofluorescence assay. The data set is classed as cell-based.
Data set [8] deals with SGC-7901. The data set can be described thus: Cell cycle arrest in human SGC-7901 cells assessed as increase in G2/M cell population at 0.084 uM by propidium iodide staining based flow cytometry. The data set is classed as functional. The note with it: time 12-72 hrs, TDE = time-dependent effect. For orientation: A flow cytometer gives signals particle by particle.
For data set [9], the system named is SGC-7901. The data set can be described thus: Induction of microtubule disruption in human SGC-7901 cells assessed as appearance of disorganised microtubule at 0.084 uM measured after 24 hrs by DAPI staining based immunofluorescence assay. The format is cell-based.
In data set [10] the test system is SGC-7901. The data set can be described thus: Cell cycle arrest in human SGC-7901 cells assessed as accumulation at G2/M cell population at 0.084 uM measured after 12 hrs by propidium iodide staining based flow cytometry (reference value: 14.5%). The format is functional.
The test system of data set [11] is SGC-7901. The data set can be described thus: Induction of microtubule disruption in human SGC-7901 cells assessed as shrinkage of microtubule at 0.084 uM measured after 24 hrs by DAPI staining based immunofluorescence assay. The data set is classed as cell-based.
Data set [12] has as its system SGC-7901. The data set can be described thus: Cell cycle arrest in human SGC-7901 cells assessed as decrease in G1 cell population at 0.084 uM by propidium iodide staining based flow cytometry. The format is functional. The following applies: time 12-72 hrs, TDE = time-dependent effect.
Data set [13] has as its system SGC-7901. The data set can be described thus: Cell cycle arrest in human SGC-7901 cells assessed as increase in sub-G1 cell population at 0.084 uM after 72 hrs by propidium iodide staining based flow cytometry. The data set is classed as functional.
The test system of data set [14] is SGC-7901. The data set can be described thus: Cell cycle arrest in human SGC-7901 cells assessed as increase in sub-G1 cell population at 0.023 uM after 72 hrs by propidium iodide staining based flow cytometry. The format is functional.
Data set [15] concerns SGC-7901. The data set can be described thus: Cell cycle arrest in human SGC-7901 cells assessed as decrease in G1 cell population at 0.023 uM by propidium iodide staining based flow cytometry. The data set is classed as functional. The following applies: time 12-72 hrs, TDE = time-dependent effect.
For data set [16], the system named is SGC-7901. The data set can be described thus: Cell cycle arrest in human SGC-7901 cells assessed as increase in G2/M cell population at 0.023 uM by propidium iodide staining based flow cytometry. The following applies: time 12-72 hrs, TDE = time-dependent effect. The data set is classed as functional.

In the case of `COc1cc(C(=O)c2nn(-c3ccccc3)nc2N2CCCCC2)cc(OC)c1OC`, the figures for the IC50 in data set [1], in data set [2] and in data set [3] were 3.62 µM, 6.45 µM and 3.72 µM, respectively.

As to `COc1cc(C(=O)c2nn(-c3ccc(F)cc3)nc2N2CCN(C(C)=O)CC2)cc(OC)c1OC`, the IC50 in data set [1] was 3.48 µM; in data set [2], more than 30 µM; in [3] it was 0.344 µM.

Consider `COc1cc(C(=O)c2nn(-c3ccc(C)c(C)c3)nc2N2CCN(C(C)=O)CC2)cc(OC)c1OC`, for which the figures for the IC50 in data set [1], in data set [2] and in data set [3] were 3.92 µM, 2.61 µM and 4.83 µM, respectively.

Take `COc1ccc(-n2nc(C(=O)c3cc(OC)c(OC)c(OC)c3)c(N3CCN(C(C)=O)CC3)n2)cc1`: the IC50 in data set [1] is 0.208 µM; in data set [2], 1.1 µM; in data set [3], 1.15 µM.

For `COc1cc(C(=O)c2cnn(-c3ccccc3)n2)cc(OC)c1OC`, the solubility in data set [4] was less than 0.5 µg/mL. In addition, the IC50 in data set [1] was 11.4 µM; in data set [2], 7.1 µM; in [3], 0.87 µM.

For the molecule `COc1cc(C(=O)c2nn(-c3ccccc3)nc2N2CCN(C(C)=O)CC2)cc(OC)c1OC`, the solubility in [4] is 2.7 µg/mL (≈ 5.8 µM). For the same molecule, the inhibition result in data set [5] was “Dose-dependent effect”. In addition, the IC50 was 28.3 µM in [6], 0.221 µM in [1], 0.133 µM in data set [2] and 0.084 µM in data set [3]. For the same molecule, the outcome in [7], in [9], in [11] and in data set [13] was Active. Moreover, the figures for the Activity result in [8], in [10] and in data set [12] were “Tde”, 53.9% and “Tde”, respectively.

Consider `COc1cc(C(=O)c2nn(-c3ccccc3)nc2N2CCOCC2)cc(OC)c1OC`, for which the IC50 in [1] is 0.891 µM; in [2], 0.488 µM; in [3] it was 5.86 µM.

The molecule `COc1cc(C(=O)c2csc(-c3ccccc3)n2)cc(OC)c1OC` yielded a solubility in data set [4] of less than 0.5 µg/mL. In addition, in data set [14], the outcome was Active. Moreover, the IC50 in [1] was found to be 0.037 µM; in data set [2] it was 0.034 µM. In addition, the Activity result in data set [15] and in data set [16] was “Tde” each time.

Take `COc1cc(C(=O)c2nn(-c3ccccc3)nc2N2CCN(C(=O)OC(C)(C)C)CC2)cc(OC)c1OC`: the figures for the IC50 in data set [1], in [2] and in data set [3] were more than 30 µM, more than 30 µM and 11.3 µM, respectively.

With `COc1cc(C(=O)c2nn(-c3ccccc3)nc2N2CCN(C)CC2)cc(OC)c1OC`, the IC50 in [1] is 0.135 µM; in data set [2] it was 0.622 µM; in data set [3], 6.58 µM.

In the case of `COc1ccc(-n2nc(C(=O)c3cc(OC)c(OC)c(OC)c3)c(N3CCN(C(C)=O)CC3)n2)cc1N`, the IC50 in data set [1] came out at 1.36 µM; in [2], 0.648 µM; in [3], 0.55 µM.

Consider `COc1cc(C(=O)c2nn(-c3cc(C)ccc3C)nc2N2CCN(C(C)=O)CC2)cc(OC)c1OC`, for which the IC50 in data set [1], in data set [2] and in data set [3] was more than 30 µM throughout.

Turning to `COc1cc(C(=O)c2nn(-c3ccc([N+](=O)[O-])cc3)nc2N2CCN(C(C)=O)CC2)cc(OC)c1OC`, the IC50 in [1] came to 0.212 µM; in data set [2] it was 0.684 µM; in data set [3], 0.417 µM.

For the molecule `COc1cc(C(=O)c2nn(-c3ccccc3C)nc2N2CCN(C(C)=O)CC2)cc(OC)c1OC`, the IC50 in data set [1] turned out to be 2.69 µM; in data set [2] it was 8.35 µM; in data set [3] it was 2.38 µM.

Turning to `COc1cc(C(=O)c2nn(-c3ccccc3F)nc2N2CCN(C(C)=O)CC2)cc(OC)c1OC`, the IC50 was 0.513 µM in data set [1], 4.65 µM in data set [2] and 0.171 µM in [3].

On to `COc1cc(C(=O)c2nn(-c3ccccc3)nc2N2CCNCC2)cc(OC)c1OC`, for which the solubility in [4] turned out to be 2.2 µg/mL (≈ 5.2 µM). The IC50 amounted to 0.342 µM in [1], 4.31 µM in [2] and 1.24 µM in [3].

`COc1cc(C(=O)c2nn(-c3ccc(Cl)cc3)nc2N2CCN(C(C)=O)CC2)cc(OC)c1OC`: the IC50 in data set [1] came to 1.08 µM; in data set [2], 0.628 µM; in data set [3], 0.406 µM.

With `COc1cc(C(=O)c2nn(-c3ccccc3)nc2N2CCN(C(C)C)CC2)cc(OC)c1OC`, the IC50 in data set [1] stood at 6.42 µM; in data set [2], 7.3 µM; in [3] it was 2.68 µM.

On to `COc1cc(C(=O)c2nn(-c3cccc(F)c3)nc2N2CCN(C(C)=O)CC2)cc(OC)c1OC`, for which the half-maximal inhibitory concentration (IC50) was 6.2 µM in data set [1], more than 30 µM in data set [2] and 1.69 µM in [3].

For `COc1cc(C(=O)c2nn(-c3ccc(C)cc3)nc2N2CCN(C(C)=O)CC2)cc(OC)c1OC`, the IC50 was determined as 0.298 µM in data set [1], 0.764 µM in data set [2] and 0.426 µM in [3].

`COc1ccc(/C=C\c2cc(OC)c(OC)c(OC)c2)cc1O` [COMBRETASTATIN A4] showed a solubility in [4] of 0.1 µg/mL (≈ 0.316 µM).

Take `COc1cc(C(=O)c2nn(-c3cccc(C)c3)nc2N2CCN(C(C)=O)CC2)cc(OC)c1OC`: the IC50 in data set [1], in [2] and in data set [3] was more than 30 µM throughout.

In the case of `COc1cc(C(=O)c2nn(-c3ccc(Br)cc3)nc2N2CCN(C(C)=O)CC2)cc(OC)c1OC`, the results for the IC50 in data set [1], in [2] and in data set [3] were more than 30 µM, 9.06 µM and 0.861 µM, respectively.

On to `COc1ccc(-n2nc(C(=O)c3cc(OC)c(OC)c(OC)c3)c(N3CCN(C(C)=O)CC3)n2)cc1[N+](=O)[O-]`, for which the IC50 in data set [1], in data set [2] and in [3] was more than 30 µM throughout.
